Results reported in patent publication US20040247696A1, “Methods of using electron active compounds for managing conditions afflicting mammals” (priority 2001, published 2004).

Columns and labels:
[1] = animals not prone to silver allergies
Description: Preferred routes of administration include topically and application to mucosa. Application can be made, for example, digitally or using a suitable applicator.

coliform = experiment: AOAC culture test, coliform-contaminated water; assay type: cell-based; conditions: about 2 PPM XeF2 + about 20 PPM KPS, pH about 7, 37.4 cfu/mL
Method: These and other aspects of the present invention may be more fully understood with reference to the following examples, which are merely illustrative of the preferred embodiments of the present invention, and are not to be construed as limiting the invention, the scope of which is defined by the appended claims. Unless otherwise indicated, antimicrobial evaluations of the various fluorinator compounds tested were performed versus control samples in cultures in accordance with the protocol as set forth in AOAC (15th) 1990:965:13 at colony densities indicated in the examples.
Contaminated water was prepared and measured to have AOAC coliform counts averaging 37.4 colony forming units per milliliter (cfu/mL). The water was treated by first adding crystal potassium monopersulfate (KPS) stabilizer, commercially available from E.I. DuPont de Nemours & Co. Corp. as OXONE®, and xenon difluoride (XeF2). The concentration in solution of the KPS and XeF2 was about 20 PPM and about 2 PPM respectively, and the pH of the treated solution was about 7.

salmonella = experiment: AOAC culture test, salmonella-contaminated aqueous solutions; assay type: cell-based; conditions: ten minutes exposure
Method: Unless otherwise indicated, antimicrobial evaluations of the various fluorinator compounds tested were performed versus control samples in cultures in accordance with the protocol as set forth in AOAC (15th) 1990:965:13 at colony densities indicated in the examples.
Aqueous solutions were prepared having a salmonella contamination at a cell density of about 500,000 cfu/mL. Two solutions of XeF2 were prepared: one as a 1% solution in 85% phosphoric acid stabilizer, and a second solution containing no stabilizer. The materials were cultured versus controls at concentrations of about 2 ppm and about 4 ppm XeF2 and at a pH of about 9.

Structure (SMILES)	Ill effects or irritation on application to the skin [1]	coliform inhibition (coliform; 5 minutes exposure)	coliform inhibition (coliform; 10 minutes exposure)	salmonella inhibition (salmonella; about 2 ppm XeF2, pH about 9, about 500,000 cfu/mL)	salmonella inhibition (salmonella; about 4 ppm XeF2, pH about 9, about 500,000 cfu/mL)
[Ag+].[Ag+].[Ag+].[Ag+].[O-2].[O-2].[O-2].[O-2] [Ag4O4, tetrasilver tetroxide]	without any ill effects or evidence of irritation	–	–	–	–
F[Xe]F [XeF2, xenon difluoride]	–	about 73%	about 77%	about 13.2%	about 96.4%
